The values that follow are results of earlier work, collected in patent US20250073182A1, “LOW DOSAGE GOSSYPOL CON[…] RODENTS” (priority 2023, published 2025).

Data set [1] deals with male rats.
Data set [2] concerns male mice.
The subject of data set [3] is female rats. As to conditions: female rats (Gadelha et al. 2014; Lin, et al., 1985).
Data set [4] concerns ovarian follicles of female mice. As to conditions: in vitro, all stages of development (Luz et al. 2018; Ding et al. 2021).
The mark [5] stands for this setting: gossypol in cottonseed meal at 15 mg/kg per day for 4 weeks.
[6] abbreviates: low doses, after 4 weeks (Nadakavukaren et al. 1979).

Turning to `Cc1cc2c(C(C)C)c(O)c(O)c(C=O)c2c(O)c1-c1c(C)cc2c(C(C)C)c(O)c(O)c(C=O)c2c1O` (atropisomer, axis not shown) [gossypol], in data set [1] (daily 30 mg/kg for 6 weeks or 7.5 and 15 mg/kg for 12 weeks (Chang et al. 1982)), the “epididymal and accessory sex glands weights” value is given as “reduced”. Moreover, in data set [1] (setting [5]), the fertility result was “reduced” and the toxicity entry is reported as “absent”. For the same compound, the “effects at high doses in rats” value in data set [1] (high doses (Romualdo et al. 2002; Gadelha et al. 2014)) is “reduced food intake, anorexia, and hepatic toxicity”. In data set [1] (setting [6]), the offspring produced entry is “no offspring were produced” and the spermatozoa with defects entry was “over 50%”. Moreover, the pregnancy rates entry in data set [1] (male rats given ≥10 mg/kg/d, bred to fertile females, as early as 6 weeks (Randel et al. 1992)) was “significantly lower”. In data set [1] (rats (Chang et al. 1982)), the “fertility after withdrawal of treatment” value is given as “recovery in fertility”. Also, the seminal vesicle weight entry in data set [2] (20 or 40 mg/kg body weight, 3 weeks (Singh and Rath, 1990)) was “significant decrease”. Further, the sperm counts result in data set [2] (two mouse strains, 10 and 20 mg/kg BW orally for 4 weeks (Hunt and Mittwoch 1984)) is reported as “reduced”. The estrous cycle entry in data set [3] is given as “longer estrous cycle”. Moreover, in data set [4], the “number of atretic follicles” value is “increased” and the “number of viable follicles” value was “significantly decreased”.
